Results taken from article PMC3930709, “Selective Activation of hTRPV1 by N-Geranyl Cyclopropylcarboxamide, an Amiloride-Insensitive Salt Taste Enhancer” (PLoS ONE, 2014).

Tests used:
[1] = test system: NaCl taste perception; set-up: method as in PMID 23221408; conditions: NGCC 5 and 10 µM; cited from earlier work
[2] = test system: non-hTRPA1-expressing Flp-In 293 cells; experiment: Ca2+ imaging of non-hTRPA1-expressing Flp-In 293 cells (control); assay type: cell-based, human; conditions: comparison with hTRPA1-expressing cells
Protocol: Flp-In 293 cell lines stably expressing hTRPA1constructed as previously reported was a gift from the professor […] at University of Tokyo. The hTRPA1-expressing cells were cultured in DMEM containing 10% FBS and 0.02% hygromycin B (Invitrogen). Flp-In 293 cell lines were maintained in DMEM containing 10% FBS. All cells were incubated at 37°C in a humidified atmosphere of 5% CO2. […] Mock-transfected HEK293T cells, hTRPV1-expressing HEK293T cells, non-hTRPA1-expressing Flp-In 293 cells, and hTRPA1-expressing Flp-In 293 cells grown in 96-well black-wall plates were rinsed with assay buffer (130 mM NaCl, 10 mM glucose, 5 mM KCl, 2 […]2, 1.2 mM MgCl2, and 10 mM HEPES, pH 7.4) and loaded with 5 μM Fura-2 AM (Invitrogen) for 30 min at 27°C. The cells were washed with assay buffer and treated with ligands. […] The fluorescence intensities of Fura-2 excited at 340 and 380 nm were simultaneously measured at 510 nm using a computer-controlled filter changer (Lambda DG4; Sutter, San Rafael, CA, USA), an Andor Luca CCD camera (Andor Technology, Belfast, UK), and an inverted fluorescence microscope (IX-71; Olympus, Tokyo, Japan). Intracellular calcium images were recorded every 3-s for 60-s and analyzed using MetaFluor software (Molecular Devices, Sunnyvale, CA, USA).

[3] = target: T1, mASIC1a (Mus musculus, UniProt Q6NXK8); experiment: Whole-cell patch clamp recording, mASIC1a-expressing HEK293T cells; assay type: cell-based; conditions: NGCC 1 mM; holding -70 mV; n = 5
T1 construct: expressed in transfected cells; host or cells: HEK293T (cDNA gift from John A. Wemmie, University of Iowa)
T1 sequence (Q6NXK8 1-526): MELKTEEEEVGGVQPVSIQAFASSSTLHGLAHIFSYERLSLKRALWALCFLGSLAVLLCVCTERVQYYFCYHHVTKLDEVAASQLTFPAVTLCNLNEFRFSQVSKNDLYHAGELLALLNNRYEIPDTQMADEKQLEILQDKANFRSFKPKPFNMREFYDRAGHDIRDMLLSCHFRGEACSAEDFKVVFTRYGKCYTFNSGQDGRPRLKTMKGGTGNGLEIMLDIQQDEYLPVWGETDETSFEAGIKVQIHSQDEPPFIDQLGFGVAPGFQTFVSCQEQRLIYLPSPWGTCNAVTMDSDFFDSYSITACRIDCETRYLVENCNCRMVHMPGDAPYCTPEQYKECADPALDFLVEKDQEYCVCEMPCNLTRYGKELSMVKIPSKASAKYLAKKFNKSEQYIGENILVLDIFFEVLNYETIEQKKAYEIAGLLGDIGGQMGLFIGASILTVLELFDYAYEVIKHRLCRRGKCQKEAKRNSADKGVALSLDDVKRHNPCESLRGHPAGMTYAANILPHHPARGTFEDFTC
Protocol: (§1) Mouse ASIC1a (mASIC1a) was a kind gift from John A. Wemmie (University of Iowa, IA, USA). For electrophysiological experiments, HEK293T cells were cultured in DMEM supplemented with 10% FBS and 0.2% penicillin/streptomycin and transiently transfected using Lipofectamine 2000 (Invitrogen) with various cDNAs. For TRPV1 channel expression, cells were transfected with hTRPV1, for ASIC1a homomeric channel expression, cells were transfected with mASIC1a. When needed, 0.1–0.2 µg of cDNA encoding tetrameric red fluorescence protein (DsRed) was co-transfected with the cDNA as a marker for successfully transfected cells. For non-transfected cells, cells were transfected with 0.1–0.2 µg of cDNA encoding DsRed alone. The next day, cells were plated onto poly-L-lysine-coated coverslip chips, and fluorescent cells were studied within 1–2 days.
(§2) The whole-cell configuration was used to voltage-clamp at room temperature (22–25°C). Electrodes pulled from glass micropipette capillaries (Sutter Instrument) had resistances of 2–2.5 MΩ, and series resistance errors were compensated >60%. Fast and slow capacitances were compensated before the application of test-pulse. Recordings were performed using aHEKAEPC-10 amplifier with pulse software (HEKA Elektronik). […] TRPV1 and TRPA1 currents were recorded by holding the cell at −80 mV. […] ASIC currents were recorded by holding the cell at −70 mV. […]

[4] = test system: non-transfected cells; experiment: Whole-cell patch clamp recording, non-transfected cells (control); assay type: cell-based, human; conditions: capsaicin 100 nM, AITC 100 µM, NGCC 10^3 µM
Protocol: as §1, §2

activation of ASIC1a homomeric channels [3]: not sensitive
SMILES: CC(C)=CCC/C(C)=C/CNC(=O)C1CC1 [NGCC, N-geranylcyclopropylcarboxamide]
effect on NaCl taste in human sensory studies [1]: significant enhancement in NaCl taste
NGCC activity in non-hTRPA1-expressing Flp-In 293 cells [2]: reacts specifically with hTRPA1
current in non-transfected cells [4]: no current
